Source: publication PMC11042424, “Development of a First-in-Class RIPK1 Degrader to Enhance Antitumor Immunity” (Research Square, 2024)

Tests used:
B16F10 cells = test: TNFα-mediated apoptosis in B16F10 cells; format: cell-based, mouse; settings: 1 μM, TNFα 100 ng/mL, 72 hours
Text: Figure 3 LD4172 sensitizes B16F10 cells to TNFα-mediated apoptosis. A, Representative flow cytometry dot plots of apoptosis. In all four plots, viable cells are seen in the left lower quadrant (FITC-/PI-), early apoptotic cells in the right lower quadrant (FITC+/PI-), and late apoptotic cells in the right upper quadrant (FITC+/PI+). B, Representative images of PI (red) and caspase 3/7 (Cas3/7+, green) staining of B16F10 cells. Cell death assessed by PI uptake using Cytation 5 imager. C, Western blots for the expression of cleaved caspase3, cleaved caspase7, and cleaved PARP in B16F10 cells. D, Quantification of extracellular ATP level. Western blots for the expression of HMGB1 and calreticulin in B16F10 cells. E, Immunofluorescence staining of HMGB1 in B16F10 cells. B16F10 cells were treated in the presence or absence of TNFα (100 ng/mL), Z-VAD-FMK (25 μM), LD4172 (1 μM), and/or T2I (1 μM) as indicated for 72 hours. Data are representative of three independent experiments. Error bars represent SD.
Apoptosis quantification was conducted utilizing a FITC-conjugated Annexin V/PI assay kit (556547, BD Biosciences) and analyzed through flow cytometry. Briefly, 2×10^5 of B16F10 cells were seeded onto six-well plates and treated as specified for 72 hours at 37°C. Treated and untreated cells were harvested, washed with PBS, and resuspended in 100 μl of binding buffer. […]

B16F10 tumors = test: B16F10 syngeneic tumor model with anti-PD1; format: in vivo; settings: B16F10 tumors; 20 mg/kg i.p. daily plus anti-PD1 100 μg i.p. every three days
Method: Figure 4 LD4172 synergizes with Anti-PD1 to inhibit tumor growth. A, Plasma concentrations of LD4172 in C57BL/6J mice administered 1 mg/kg intravenously (i.v.) or 10 mg/kg intraperitoneally (i.p.) (n=4). B, Representative immunoblots of RIPK1 in different tissues of C57BL/6J mice treated with LD4172 (n=3–4). C, Densitometric analysis of RIPK1 protein levels in different tissues (n=3 or 4). D, Representative immunoblots of RIPK1 levels of B16F10 cells transduced with gRNA specific for RIPK1 or non-targetable control (sgNC). E, B16F10-RIPK1-KO tumors sensitized to anti-PD1 treatment: 3×10^5 B16F10 cells transduced with gRNA specific for RIPK1 or non-targetable control (sgNC) were inoculated into C57BL/6J mice. After seven days, mice with measurable tumors (~100 mm3) were randomly treated with or without anti-PD1 in vivo (100 μg per dose, i.p., every three days, n=8). F, Tumor growth curve of mice with B16F10 tumors treated with LD4172 and/or anti-PD1 (n=8). C57B6/J mice were subcutaneously inoculated with 3×10^5 B16F10 tumor cells. After seven days (tumor size ~ 100 mm3), mice were treated every three days with anti- PD1 (100 μg per dose, i.p.), daily with LD4172 (20 mg/kg, i.p.), a combination of LD4172 and anti-PD1 (same dose as their individual doses), or their corresponding vehicle control. G, Kaplan-Meier survival curve for all experimental groups. H, Final tumor weight (g) from F after 22d of treatment (n=8). I, Representative images of B16F10 tumors collected at the end of treatment. J, Mouse body weight (n=8). K, Tumor growth curve of mice with B16F10 tumors treated with T2I and/or anti-PD1 (n=8). The experimental conditions and treatment regimens were the same as F except using the RIPK1 kinase inhibitor T2I (20 mg/kg, i.p.) to replace LD4172. Representative data from at least three independent experiments are shown. Data are expressed as the mean ± SEM. * p<0.05; ** p<0.01; *** p<0.001, **** p<0.0001, respectively. ns, indicates no statistical significance.
To establish a syngeneic mouse model, 3× 10^5 B16F10 cells resuspended in PBS were mixed 1:1 by volume with Matrigel (354262, Corning) and subcutaneously injected into the right flank of seven-week-old wild-type female C57BL/6J mice on day 0. Treatments were started on day 7 when the tumor volume reached approximately 100 mm^3. Antibodies were administered in 100μL volumes and injected intraperitoneally every three days for the following: anti-PD1 (100 μg, BE0146, BioXcell) and anti-CD8 (500 μg, BE0004, BioXcell). The RIPK1 degrader LD4172 and RIPK1 kinase inhibitor T2I were delivered in 200 μL of vehicle solution (30% PEG400, 5% Tween-80, 5% DMSO) once daily (20 mg/kg, i.p. injection). […] Tumors were measured every three days beginning on day 7 after the challenge until death. […]

## CCn1cc(-c2ccc3c(c2)CCN3C(=O)Cc2cccc(OC(F)(F)F)c2)c2c(N)ncnc21 [T2I, reference compound]
B16F10 cells
  cell death / apoptosis in combination with TNFα: did not trigger TNFα-mediated apoptosis
B16F10 tumors
  tumor response in combination with anti-PD1: failed to sensitize B16F10 tumors to anti-PD1 treatment
